According to publication PMC3920720, “Triterpenes and Steroids from Euphorbia denticulata Lam. With Anti-Herpes Symplex Virus Activity” (Iranian Journal of Pharmaceutical Research : IJPR, 2013):
Values after ≈ are worked out from the molar mass of the structure shown. Like-named read-outs stand apart in the source and are kept apart here.

Columns and labels:
HSV-1 [1] = assay: Time-course anti-virus analysis (MTS, addition pre-, co- or post-infection); format: cell-based, Herpes simplex virus type 1 (HSV-1, strain KOS); conditions: post-infection; 1, 10, 100 μg/mL; added 1 h before to 24 h after infection; MTS after 3 days
Description: Different non-cytotoxic concentrations (≤ CC50 values) of test compounds were added to culture cells in triplicate at different times pre-infection or post-infection. HSV-1(10 TCID50 per well) was inoculated onto confluent monolayers of Vero cells for 2 h. After 3 days, MTS test and antiviral activity were carried out as previously described ([3]).
Inhibition was evaluated by MTS assay after 3 days of infection and expressed as percentage inhibition.
Figure 3 Inhibitory effect of test compounds at different concentrations (1, 10, 100 μg/mL) at various times pre-infection , co-infection and post-infection of herpesvirus (HSV-1) to Vero cells. a) betulin, and b) (3β,23E)-Cycloarta-23-ene-3,25-diol were added with the HSV-1 infected Vero cells at various times period like pre-infection (− 1 h), co-infection (0 h) or post-infection( 2-24 h). After 3 days of incubation at 37°C, inhibition was evaluated by MTS assay and expressed as the inhibition percentage. Each point represents the mean of three independent experiments

HSV-1 [2] = assay: Antiviral assay using MTS method (HSV-1 infected Vero cells); format: cell-based, Herpes simplex virus type 1 (HSV-1, strain KOS); conditions: for Selectivity index (SI) = CC50/EC50: HSV-1, CC50 on Vero cells / EC50; for EC50: read-out: EC50 ±SEM (concentration producing 50% inhibition of virus induced cytopathic effects)
[3] = Cytotoxicity assay (MTS) on Vero cells; format: cell-based, African green monkey; conditions: African green monkey
Description: (§1) For cytotoxicity and antiviral assays cells were grown in Dulbeccoʼs Modified Eagleʼs growth Medium ( DMEM; Sigma, USA) supplemented with 2% of fetal bovine serum (FBS; Gibco, Germany), 100 μg/mL of streptomycin, 100 UI/mL of penicillin and 0.25 μg/mL amphotericin B ( Gibco, Germany) and 0.14% (v/v) sodium bicarbonate. All the cells were cultured at 37°C in a humidified atmosphere supplied with 5% CO2.
(§2) The Vero cells were seeded onto a 96-well plate at a concentration of 3.5×10^5 Vero cells per mL and a volume of 100 μL per well. Following 24 h incubation at 37 °C, a confluent cell monolayer was confirmed and cell media was removed. Test compounds were serially diluted with the culture medium supplemented with 2% serum to reach the different concentrations. Negative control dilution of DMSO at 0.1 % was also included. An aliquot of 100 μL/well of each diluted compound or DMSO was added to the plates in triplicate. After incubation at 37 °C with 5% CO2 for 3 days, MTS (Cell Titer 96; Promega, USA) was added to each well with a volume of 20 μL. The trays were further incubated for 2 h to allow MTS production. The absorbances were determined with an ELISA reader (Stata Fax 2100, USA) at a test wavelength of 490 nm. Data were calculated as the percentage of inhibition using the following formula: inhibition % =[100 – ( At/ As) × 100]%. At and As refer to the absorbances of the test substances and the solvent control, respectively. CC50 values, defined as the concentration of 50% cellular cytotoxicity (CC50) of test compounds ([7], [8]).

Vero cells = assay: Cytotoxicity assay (MTS) on Vero cells; format: cell-based, African green monkey; conditions: Vero cells, MTS, 3 days incubation, n=3
Description: as §1, §2

[4] = Human alphaherpesvirus 1, Vero, 72 h
[5] = CC50 ±SEM (50% cytotoxic concentration on vero cells)

For `C[C@H](C/C=C/C(C)(C)O)[C@H]1CC[C@@]2(C)C3CCC4C(C)(C)[C@@H](O)CC[C@@]45C[C@@]35CC[C@]12C` (stereo partly drawn) [(3β,23E)-Cycloarta-23-ene-3,25-diol, Cycloart-23E-ene-3β,25-diol], the “Time of compound addition giving the highest inhibition against HSV-1 infection” value (HSV-1 [1]) was at most 2.0 h, the “Selectivity index (SI) = CC50/EC50” value (HSV-1 [2]) was 12.57 and the EC50 (HSV-1 [2]; [4]) was 86.63 ± 0.03 mg/L (≈ 196 µM). For the same compound, the CC50 at 3 days [3, 5] was 1089.2 ± 0.25 mg/L (≈ 2460 µM).
In the case of `Nc1nc2c(ncn2COCCO)c(=O)[nH]1` [Acyclovir, reference compound], the “Selectivity index (SI) = CC50/EC50” value (HSV-1 [2]) is reported as 42.66, the EC50 (HSV-1 [2]; Human alphaherpesvirus 1, 72 h, HSV-1 in Vero cells, MTS, 3 days, three separate experiments) is reported as 3 mg/L (≈ 13.3 µM) and the CC50 at 3 days [3, 5] is reported as 128 ± 0.215 mg/L (≈ 568 µM).
With `C=C(C)[C@@H]1CC[C@]2(CO)CC[C@]3(C)[C@H](CC[C@@H]4[C@@]5(C)CC[C@H](O)C(C)(C)[C@@H]5CC[C@]43C)[C@@H]12` [Betulin, lup-20(29)-ene-3β,28-diol] the “Time of compound addition giving the highest inhibition against HSV-1 infection” value (HSV-1 [1]) was at most 2.0 h, the “Selectivity index (SI) = CC50/EC50” value (HSV-1 [2]) was 7.83 and the “Selectivity index (SI) = CC50/EC50” value (HSV-1 [2]; listed as betulin) was 7.831. The EC50 (HSV-1 [2]; [4]) was 84.37 ± 0.018 mg/L (≈ 191 µM), the “CC50 ±SEM (50% cytotoxic concentration on vero cells)” value (Vero cells) was 660.72 ± 0.072 mg/L (≈ 1490 µM) and the CC50 at 3 days ([3]; Vero cells, MTS, 3 days incubation, n=3, read-out: CC50 ±SEM (50% cytotoxic concentration on vero cells)) was 660.72 ± 0.072 mg/L (≈ 1490 µM).
